The values below come from patent US20260184687A1, “DIHYDROINDENE DERIVATIVES AS MALT1 INHIBITORS” (C4X Discovery Limited, priority 2022, published 2026).

For the test, the target named is T1, FL hMALT1 enzyme (Homo sapiens, UniProt Q9UDY8).
T1 sequence (Q9UDY8 1-824): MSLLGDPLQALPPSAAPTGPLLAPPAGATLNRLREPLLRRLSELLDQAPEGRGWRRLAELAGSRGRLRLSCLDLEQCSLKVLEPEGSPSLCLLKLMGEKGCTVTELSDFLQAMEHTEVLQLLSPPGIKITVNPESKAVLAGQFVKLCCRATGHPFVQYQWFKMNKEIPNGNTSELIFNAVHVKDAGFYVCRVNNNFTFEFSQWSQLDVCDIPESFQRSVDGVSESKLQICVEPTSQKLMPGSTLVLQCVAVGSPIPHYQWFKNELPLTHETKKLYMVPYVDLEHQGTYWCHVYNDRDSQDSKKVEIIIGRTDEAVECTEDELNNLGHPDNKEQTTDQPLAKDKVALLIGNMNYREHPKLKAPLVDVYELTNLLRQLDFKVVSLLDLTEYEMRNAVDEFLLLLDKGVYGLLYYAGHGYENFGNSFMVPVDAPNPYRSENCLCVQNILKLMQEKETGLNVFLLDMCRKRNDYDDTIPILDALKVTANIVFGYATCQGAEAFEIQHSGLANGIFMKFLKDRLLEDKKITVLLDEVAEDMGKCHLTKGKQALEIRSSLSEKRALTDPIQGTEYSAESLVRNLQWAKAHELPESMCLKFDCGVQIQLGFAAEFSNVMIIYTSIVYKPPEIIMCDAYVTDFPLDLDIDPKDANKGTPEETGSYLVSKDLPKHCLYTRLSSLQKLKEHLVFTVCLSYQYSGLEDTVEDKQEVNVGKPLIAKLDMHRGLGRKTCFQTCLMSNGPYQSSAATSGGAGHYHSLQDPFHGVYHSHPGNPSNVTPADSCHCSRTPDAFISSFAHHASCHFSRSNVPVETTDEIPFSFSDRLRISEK
The test can be described thus: biochemical.

Structures are written as SMILES.
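Note: Cell-free protease assay: enzyme preincubated with compound 30 min at room temperature, then cleavage of fluorogenic Ac-LVSR-AMC substrate (100 µM) tracked by fluorescence (ex 360/em 460 nm).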

What is called IC50 is the midpoint of a concentration-inhibition curve. The low end stands for higher potency, the high end for lower potency. For `CN(C(=O)C1CCNCC1)[C@@H](c1ccc(NC2Cc3ccccc3C2(C)C)nc1)C(F)(F)F` (single isomer, unassigned) [Example 148], it took 290 nM to reach half-maximal inhibition (IC50).

`CN(C(=O)C1CCS(=O)(=O)CC1)[C@@H](c1ccc(NC2Cc3ccc(Cl)cc3C2)nc1)C(F)(F)F` (single isomer, unassigned) [Example 288] showed an IC50 of 1640 nM. Compared with the last compound, the IC50 is about 5.7-fold higher.

The compound `CNC(=O)[C@H]1C[C@H](C(=O)N(C)[C@@H](c2ccc(NC3Cc4ccc(Cl)c(Cl)c4C3)cn2)C(F)(F)F)C1` (stereo partly drawn) [Example 363, (1,3-trans)-N^1-((1S)-1-(5-((4,5-Dichloro-2,3-dihydro-1H-inden-2-yl)amino)pyridin-2-yl)-2,2,2-trifluoroethyl)-N^1,N^3-dimethylcyclobutane-1,3-dicarboxamide] returned an IC50 of 70 nM.

In the case of `CN(C(=O)C1CCS(=O)(=O)CC1)[C@@H](c1ccc(NC2Cc3cc(F)cc(Cl)c3C2)cn1)C(F)(F)F` (single isomer, unassigned) [Example 286], the midpoint of inhibition, the IC50, lay at 730 nM.

`CN(C(=O)CNS(C)(=O)=O)[C@@H](c1ccc(NC2Cc3ccc(Cl)c(Cl)c3C2)cn1)C(F)(F)F` (single isomer, unassigned) [Example 380] registered a half-inhibitory concentration (IC50) of 1870 nM.

For the compound `CN(C(=O)C1CNC(=O)O1)[C@@H](c1ccc(N[C@H]2Cc3ccc(Cl)cc3C2)cn1)C(F)(F)F` (stereo partly drawn) [Example 303, N—((S)-1-(5-(((S)-5-Chloro-2,3-dihydro-1H-inden-2-yl)amino)pyridin-2-yl)-2,2,2-trifluoroethyl)-N-methyl-2-oxooxazolidine-5-carboxamide], the half-maximal inhibitory concentration (IC50) came to 190 nM.

In the case of `CN(C(=O)C1CCS(=O)(=O)CC1)[C@@H](c1ccc(NC2Cc3ccc(F)c(Cl)c3C2)cn1)C(F)(F)F` (single isomer, unassigned) [Example 266], the IC50 stood at 1600 nM.

As to `CN(C(=O)C1CCS(=O)(=O)CC1)[C@@H](c1ccc(NC2Cc3ccc(Br)cc3C2)cn1)C(F)(F)F` (single isomer, unassigned) [Example 285], it took 690 nM to reach half-maximal inhibition (IC50).

Consider `CN(C(=O)C1CCS(=O)(=O)CC1)[C@@H](c1ccc(NC2Cc3ccc(Cl)c(C4CC4)c3C2)cn1)C(F)(F)F` (single isomer, unassigned) [Example 305], for which the half-inhibitory concentration (IC50) turned out to be 300 nM. This IC50 is about 2.3-fold lower than that of the compound before.

`Cc1nnc(N2CC(C(=O)N(C)[C@@H](c3ccc(NC4Cc5ccc(Cl)c(F)c5C4)cn3)C(F)(F)F)C2)o1` (single isomer, unassigned) [Example 364] showed an IC50 of 120 nM.

As to `CN(C(=O)C1CCS(=O)(=O)CC1)[C@@H](c1ccc(NC2Cc3cccc(C(F)(F)F)c3C2)cn1)C(F)(F)F` (single isomer, unassigned) [Example 190], the IC50 came to 3300 nM.

`CNC(=O)C12C3C4C1C1C2C3C41C(=O)N(C)[C@@H](c1ccc(NC2Cc3ccc(Cl)cc3C2)cn1)C(F)(F)F` (stereo partly drawn) [Example 292, N^1-((1S)-1-(5-((5-Chloro-2,3-dihydro-1H-inden-2-yl)amino)pyridin-2-yl)-2,2,2-trifluoroethyl)-N^1,N^4-dimethylcubane-1,4-dicarboxamide] registered a concentration for half-maximal inhibition (IC50) of 840 nM.

`CN(C(=O)C1CCCNC1)[C@@H](c1ccc(NC2Cc3ccccc3C2(C)C)cn1)C(F)(F)F` (single isomer, unassigned) [Example 127] displayed a half-maximal inhibitory concentration (IC50) of 300 nM.

In turn, `CN(C(=O)C1CN(C(=O)CO)C1)[C@@H](c1ccc(NC2Cc3ccc(Cl)c(Cl)c3C2)cn1)C(F)(F)F` (single isomer, unassigned) [Example 379] showed a half-inhibitory concentration (IC50) of 46 nM.

For the compound `COCCN1CCC12CC(C(=O)N(C)[C@@H](c1ccc(NC3Cc4ccccc4C3(C)C)cn1)C(F)(F)F)C2` (single isomer, unassigned) [Example 242], 200 nM corresponded to half-maximal inhibition (IC50). Against the preceding compound, the IC50 is about 4.3-fold higher.

Compound `CN(C(=O)[C@H]1C[C@H](O)C1)[C@@H](c1ccc(NC2Cc3ccc(Cl)c(F)c3C2)cn1)C(F)(F)F` (single isomer, unassigned) [Example 375] yielded an IC50 of 1320 nM. This IC50 is about 6.6-fold higher than that of the compound before.

`CN(C(=O)CO)[C@@H](c1ccc(NC2Cc3ccc(Cl)c(F)c3C2)cn1)C(F)(F)F` (single isomer, unassigned) [Example 367] displayed an IC50 of 310 nM.

`CN(C(=O)C1CCS(=O)(=O)CC1)[C@@H](c1ccc(NC2Cc3ccc(Cl)c(Cl)c3C2)nc1)C(F)(F)F` (single isomer, unassigned) [Example 345] yielded an IC50 of 7 nM.

For `CN(C(=O)N1CCS(=O)(=O)CC1)[C@@H](c1ccc(NC2Cc3ccccc3C2(C)C)cn1)C(F)(F)F` (single isomer, unassigned) [Example 143], the 50% inhibitory concentration (IC50) was 680 nM.

`CN(C(=O)C1CC2(CCN2CCO)C1)[C@@H](c1ccc(NC2Cc3ccccc3C2(C)C)cn1)C(F)(F)F` (single isomer, unassigned) [Example 248] had an IC50 of 140 nM. This IC50 lies about 4.9-fold lower than the previous one.

The compound `CN(C(=O)C1CCS(=O)(=O)CC1)[C@@H](c1ccc(NC2Cc3cccc(C#N)c3C2)cn1)C(F)(F)F` (single isomer, unassigned) [Example 257] came in with a 50% inhibitory concentration (IC50) of 2000 nM.

Regarding `CC(=O)N1CC(C(=O)N(C)[C@@H](c2ccc(NC3Cc4ccc(Cl)c(Cl)c4C3)cn2)C(F)(F)F)C1` (single isomer, unassigned) [Example 376], the half-maximal inhibitory concentration (IC50) was 1200 nM.

On to `CN(C(=O)[C@@H]1CNC(=O)C1)[C@@H](c1ccc(NC2Cc3ccc(Cl)c(Cl)c3C2)cn1)C(F)(F)F` (single isomer, unassigned) [Example 318], for which 660 nM corresponded to half-maximal inhibition (IC50).

The compound `CN(C(=O)C1C2CS(=O)(=O)CC21)[C@@H](c1ccc(NC2Cc3ccccc3C2(C)C)cn1)C(F)(F)F` (single isomer, unassigned) [Example 217] had a 50% inhibitory concentration (IC50) of 170 nM.

`CN(C(=O)C1CN(S(C)(=O)=O)C1)[C@@H](c1ccc(NC2Cc3ccccc3C2(C)C)cn1)C(F)(F)F` (single isomer, unassigned) [Example 210] registered an IC50 of 200 nM.

For `CN(C(=O)C1CCS(=O)(=O)CC1)[C@@H](c1ccc(NC2Cc3ccc(Cl)c(F)c3C2)cn1)C(F)(F)F` (single isomer, unassigned) [Example 276], half-maximal inhibition (IC50) required 780 nM.

Turning to `COCc1c(Cl)ccc2c1CC(Nc1ccc([C@H](N(C)C(=O)C3CCS(=O)(=O)CC3)C(F)(F)F)nc1)C2` (stereo partly drawn) [Example 356, N-((1S)-1-(5-((5-Chloro-4-(methoxymethyl)-2,3-dihydro-1H-inden-2-yl)amino)pyridin-2-yl)-2,2,2-trifluoroethyl)-N-methyltetrahydro-2H-thiopyran-4-carboxamide 1,1-dioxide], the concentration for half-maximal inhibition (IC50) was 210 nM.

`Cc1ncc(C(=O)N(C)[C@@H](c2ccc(NC3Cc4ccc(Cl)c(F)c4C3)cn2)C(F)(F)F)cn1` (single isomer, unassigned) [Example 348] showed an IC50 of 410 nM.

With `CN(C(=O)C1CN(C(=O)C2CCOC2)C1)[C@@H](c1ccc(NC2Cc3ccc(Cl)c(Cl)c3C2)cn1)C(F)(F)F` (single isomer, unassigned) [Example 351], the half-maximal inhibitory concentration (IC50) amounted to 590 nM. This IC50 and that of the compound before are within 1.5-fold of each other.

In the case of `CN(C(=O)[C@H]1C[C@@H](O)C1)[C@@H](c1ccc(NC2Cc3ccc(Cl)c(F)c3C2)cn1)C(F)(F)F` (single isomer, unassigned) [Example 383], half-maximal inhibition (IC50) was put at 1600 nM.

As for `CNC(=O)N1CC(C(=O)N(C)[C@@H](c2ccc(NC3Cc4ccc(Cl)c(Cl)c4C3)cn2)C(F)(F)F)C1` (single isomer, unassigned) [Example 334], 300 nM corresponded to half-maximal inhibition (IC50). This IC50 is about 5.3-fold lower than that of the compound before.

Regarding `CN(C(=O)C1CCS(=O)(=O)CC1)[C@@H](c1ccc(NC2Cc3cc(F)c(F)c(F)c3C2)cn1)C(F)(F)F` (single isomer, unassigned) [Example 295], the IC50 came out at 1900 nM.

As to `CN(C(=O)C1CCS(=O)(=O)CC1)[C@@H](c1ccc(NC2Cc3cccc(OC(F)F)c3C2)cn1)C(F)(F)F` (stereo partly drawn) [Example 333, N-((1S)-1-(5-((4-(Difluoromethoxy)-2,3-dihydro-1H-inden-2-yl)amino)pyridin-2-yl)-2,2,2-trifluoroethyl)-N-methyltetrahydro-2H-thiopyran-4-carboxamide 1,1-dioxide], inhibition was half-maximal at 160 nM (IC50).

As to `CN(C(=O)C1CN2CCC1CC2)[C@@H](c1ccc(NC2Cc3ccccc3C2(C)C)cn1)C(F)(F)F` (single isomer, unassigned) [Example 139], half-maximal inhibition (IC50) required 370 nM.

On to `CN(C(=O)C1CC2(CCN2)C1)[C@@H](c1ccc(NC2Cc3ccccc3C2(C)C)cn1)C(F)(F)F` (single isomer, unassigned) [Example 154], for which inhibition was half-maximal at 150 nM (IC50). This IC50 is about 2.5-fold lower than that of the compound before.

Regarding `COc1cccc2c1CC(Nc1ccc([C@H](N(C)C(=O)C3CCS(=O)(=O)CC3)C(F)(F)F)nc1)C2` (single isomer, unassigned) [Example 178], the concentration for half-maximal inhibition (IC50) was 260 nM.

`CN(C(=O)C1CC2(CCC(=O)N2)C1)[C@@H](c1ccc(NC2Cc3ccc(Cl)c(Cl)c3C2)cn1)C(F)(F)F` (single isomer, unassigned) [Example 342] gave a 50% inhibitory concentration (IC50) of 1320 nM.

On to `CN(C(=O)C1CCS(=O)(=O)CC1)[C@@H](c1ccc(NC2Cc3cc(Cl)cc(F)c3C2)cn1)C(F)(F)F` (single isomer, unassigned) [Example 271], for which the half-inhibitory concentration (IC50) amounted to 3300 nM.

On to `CN(C(=O)C1CCS(=O)(=O)CC1)[C@@H](c1ccc(NC2Cc3ccc(C(F)(F)F)cc3C2)cn1)C(F)(F)F` (single isomer, unassigned) [Example 255], for which half-maximal inhibition (IC50) required 110 nM.
